Laboratory results from US4124726A, “Anti-inflammatory agent of benzoyl derivative” (priority 1976, dated 1978).

What was measured:
[1] = system: carragheenin edema; assay: acute carragheenin edema inhibition (anti-inflammatory effect); format: in vivo, male rats; settings: for ED50: Rattus norvegicus, oral, carragheenin edema, rats, Table 2, read-out: 50% inhibition rate ED50
Description: The edema was induced by subcutaneous injection of 1% carraheenin suspension in saline to the hind paws of male rats weighing 150 to 180 g. Each sample was orally given at the dosage of 100 mg/kg just before the inoculation of carragheenin.

[2] = system: painful stretchings induced by acetic acid; assay: acetic acid induced stretching (analgesic effect); settings: 100 mg/kg oral, 0.7% acetic acid i.p., mice
Description: Each sample was orally administrated in the dosage of 100 mg/kg before injection of acetic acid.

[3] = in vivo; settings: mouse, po
Description: Each sample was dissolved in olive oil or dispersed in 1% Tween 20 aqueous solution.

[4] = system: platelet aggregation; assay: blood platelet aggregation inhibition, collagen as inducer; format: cell-based; settings: 10^-4 mole, rabbit PRP
From the text: Blood platelet aggregation inhibiting effect
Male rabbits (Japan original white strain 3.3 to 3.6 kg) were anesthetized with Thiopental sodium and blood was sampled from the carotid artery.

SMILES	anti-inflammatory effect, inhibition rate (ED50), in words [1]	Analgesic (percentage diminution of times of painful stretchings) [2] [%]	LD50 at 72 h [3] [mg/kg]	Blood platelet agg. inh. (percentage inhibition of platelet aggregation) [4] [%]	ED50 [1] [mg/kg]
CCCCc1ccc(C(=O)c2ccccc2F)cc1 [Active ingredient No. 8, 4-n-butyl-2'-fluorobenzophenone]	especially high inhibition rate	–	–	–	–
CCCCCc1ccc(C(=O)c2ccccc2F)cc1 [Active ingredient No. 9, 2-Fluoro-4'-n-amyl-benzophenone]	especially high inhibition rate	–	–	–	–
Cc1cc(C)c(C(=O)c2ccccc2F)c(C)c1 [Active ingredient No. 11, 2-Fluoro-2',4',6'-trimethyl-benzophenone]	especially high inhibition rate	–	–	–	–
O=C(c1ccccc1)c1ccccc1F [Active ingredient No. 15, 2-fluorobenzophenone]	especially high inhibition rate	–	–	–	–
CCCCc1ccc(C(=O)c2ccccc2)cc1 [Active ingredient No. 19, 4-n-butyl benzophenone]	especially high inhibition rate	–	–	–	–
CCCc1ccc(C(=O)c2ccccc2F)cc1 [compound 7]	–	15.0	1500	23.0	78
CCCCCc1ccc(C(=O)c2ccccc2F)cc1 [compound 9]	–	15.3	3000	14.6	22
Cc1ccc(C(=O)c2ccccc2F)c(C)c1 [compound 10]	–	20.3	500	18.5	90
Cc1cc(C)c(C(=O)c2ccccc2F)c(C)c1 [compound 11]	–	13.9	500	16.5	22
CCc1cc(CC)c(C(=O)c2ccccc2)c(CC)c1 [compound 13]	–	15.8	2000	14.3	> 400
Cc1cc(C)c(C(=O)c2ccc(Cl)cc2)c(C)c1 [compound 14]	–	19.2	500	18.1	130
O=C(c1ccccc1)c1ccccc1F [compound 15]	–	18.5	4000	23.2	65
CCCc1ccc(CCC)c(C(=O)c2ccccc2)c1 [compound 16]	–	12.4	1500	8.6	140
CCCCc1ccc(CCCC)c(C(=O)c2ccc(C)cc2)c1 [compound 17]	–	10.3	2000	17.3	180
CCCCCCCc1ccc(C(=O)c2ccccc2)cc1 [compound 25]	–	48.6	8000	7.8	–
CCCCCCCCc1ccc(C(=O)c2ccccc2)cc1 [compound 26]	–	35.9	10000	3.1	–
CCCCc1ccc(C(=O)C(=O)c2ccccc2)cc1 [compound 29]	–	2.7	10000	11.1	130
Cc1ccc(C(=O)c2ccccc2)c(C)c1C [compound 31]	–	9.5	1500	18.2	–
CCc1ccc(C(=O)c2ccc(C)cc2)cc1 [compound 33]	–	15.5	3000	20.5	–
CCCc1ccc(C(=O)c2ccc(C)cc2)cc1 [compound 34]	–	12.1	5000	16.4	–
CCCCCc1ccc(C(=O)c2ccccc2C)cc1 [compound 41]	–	14.6	3000	14.4	–
CCCCOc1ccc(C(=O)c2ccccc2)cc1 [compound 42]	–	26.8	3000	4.4	–
CCCc1ccc(C(=O)Cc2ccccc2)cc1 [compound 49]	–	18.2	8000	28.5	–
